Test results as given in US6887896B1, “7-[(7-Alkoxy)-chrom-3-en-6-yl]-heptatrienoic acid and 7-[(3-alkoxy)-5,6-dihydronaphthalen-2-yl]-heptatrienoic acid derivatives having serum glucose reducing activity” (Allergan, Inc., priority 2003, dated 2005).
Blank lines part the entries; values can stand above or below the compound they belong to.

Columns and labels:
[1] = biological target: T1, RARβ (Homo sapiens, UniProt P10826); assay: ligand binding assay, RARβ; conditions: for Ki: read-out: RAR Bind. Ki β; for Kd: Table 9 (Formula F), read-out: RAR β Kd
T1 sequence (P10826 1-455): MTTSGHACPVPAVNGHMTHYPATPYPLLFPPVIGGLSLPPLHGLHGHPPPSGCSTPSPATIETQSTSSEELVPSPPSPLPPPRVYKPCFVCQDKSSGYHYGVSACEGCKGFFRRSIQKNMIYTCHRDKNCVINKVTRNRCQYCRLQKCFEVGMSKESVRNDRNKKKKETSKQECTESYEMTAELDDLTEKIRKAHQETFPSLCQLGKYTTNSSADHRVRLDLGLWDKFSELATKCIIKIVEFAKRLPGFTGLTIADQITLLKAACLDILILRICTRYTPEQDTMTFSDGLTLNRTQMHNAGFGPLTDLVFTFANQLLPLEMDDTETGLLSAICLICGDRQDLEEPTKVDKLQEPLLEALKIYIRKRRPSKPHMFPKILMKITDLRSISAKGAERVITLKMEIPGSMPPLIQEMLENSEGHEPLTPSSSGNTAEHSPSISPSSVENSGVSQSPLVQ
Excerpt: (§1) Specifically, one such assay is a chimeric receptor transactivation assay which tests for agonist-like activity in the R RAPE and RAR7 receptor subtypes, and which is based on work published by Feigner, P. L. and Holm, M (1989) Focus, 112 is described in detail in U.S. Pat. No. 5,455,265. The specification of U.S. Pat. No. 5,455,265 is hereby expressly incorporated by reference. A holoreceptor transactivation assay and a ligand binding assay which measure the antagonist/agonist like activity of the compounds of the invention, or their ability to bind to the several retinoid receptor subtypes, respectively, are described in published PCT Application No. WO WO93/11755 (particularly on pages 30-33 and 37-41) published on Jun. 24, 1993, the specification of which is also incorporated herein by reference. A detailed experimental procedure for holoreceptor transactivations has been described by Heyman et al. Cell 68, 397-406, (1992); Allegretto et al. J. Biol. Chem. 268, 26625-26633, and Mangelsdorf et al. The Retinoids: Biology, Chemistry and Medicine, pp 319-349, Raven Press Ltd., New York, which are expressly incorporated herein by reference. The results obtained in this assay are expressed in EC50 numbers, as they are also in the chimeric receptor transactivation assay. The results of the ligand binding assay are expressed in Ki numbers. (See Cheng et al. Biochemical Pharmacology Vol. 22 pp 3099-3108, expressly incorporated herein by reference.)
(§2) Generally speaking, in the tables disclosing the results of transactivation and binding assays the numbers in parentheses indicate efficacy as a percentage compared to the standard compound, (2E,4E,1′S,2′S)-3-methyl-5-[2′-methyl-2′-(5,5,8,8-tetramethyl-5,6,7,8-tetrahydro-naphthalen-2-yl)cyclopropyl]-penta-2,4-dienoic acid and the other numbers indicate the measured EC50 and K; in nanomolar concentration.

[2] = biological target: T2, RXRα (Homo sapiens, UniProt P19793); assay: ligand binding assay, RXRα; conditions: for Ki: read-out: RXR Bind Ki α; for Kd: Table 9 (Formula F), read-out: RXR α Kd
T2 construct: expressed in transfected cells
T2 sequence (P19793 1-462): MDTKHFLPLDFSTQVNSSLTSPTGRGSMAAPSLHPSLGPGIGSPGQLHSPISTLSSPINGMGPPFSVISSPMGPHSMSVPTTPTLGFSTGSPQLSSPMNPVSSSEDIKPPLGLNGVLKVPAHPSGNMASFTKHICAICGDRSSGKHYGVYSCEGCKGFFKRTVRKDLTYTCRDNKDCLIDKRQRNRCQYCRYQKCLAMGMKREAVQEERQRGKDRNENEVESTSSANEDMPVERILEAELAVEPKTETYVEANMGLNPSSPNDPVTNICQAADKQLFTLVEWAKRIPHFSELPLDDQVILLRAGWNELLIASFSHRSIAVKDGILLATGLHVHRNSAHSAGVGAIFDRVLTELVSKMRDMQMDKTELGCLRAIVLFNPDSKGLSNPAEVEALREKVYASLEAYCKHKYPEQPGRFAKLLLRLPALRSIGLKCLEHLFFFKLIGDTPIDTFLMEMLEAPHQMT
Excerpt: as §1, §2

[3] = biological target: T3, RXRβ (UniProt P28704); assay: holoreceptor transactivation assay, RXRβ; format: cell-based
T3 sequence (P28704 1-520): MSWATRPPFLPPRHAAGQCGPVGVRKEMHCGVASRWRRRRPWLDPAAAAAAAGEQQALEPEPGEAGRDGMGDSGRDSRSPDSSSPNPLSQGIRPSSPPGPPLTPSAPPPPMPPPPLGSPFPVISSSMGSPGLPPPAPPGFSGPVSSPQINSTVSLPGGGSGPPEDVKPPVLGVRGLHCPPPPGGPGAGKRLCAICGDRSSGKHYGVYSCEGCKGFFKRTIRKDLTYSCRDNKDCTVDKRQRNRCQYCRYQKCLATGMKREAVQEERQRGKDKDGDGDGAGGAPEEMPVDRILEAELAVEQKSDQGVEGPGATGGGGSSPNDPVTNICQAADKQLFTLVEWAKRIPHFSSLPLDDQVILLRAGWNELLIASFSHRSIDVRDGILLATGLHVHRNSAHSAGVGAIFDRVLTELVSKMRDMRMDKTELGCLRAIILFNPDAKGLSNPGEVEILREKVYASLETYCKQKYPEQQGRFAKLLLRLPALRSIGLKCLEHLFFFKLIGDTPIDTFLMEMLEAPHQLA
Excerpt: as §1
(§3) Efficacy in a transactivation assay is expressed as a percentage of the maximum potency attained by the compound compared to a standard which, in this case, is the compound named (2E,4E,1′S,2′S)-3-methyl-5-[2′-methyl-2′-(5,5,8,8-tetramethyl-5,6,7,8-tetrahydro-naphthalen-2-yl)-cyclopropyl]-penta-2,4-dienoic acid. This standard compound is described in U.S. Pat. No. 6,114,533.
(§4) The specification of this application for patent is organized in several sections in accordance with structural Formulas A through F each of which discloses a group of preferred compounds within the scope of the invention. Tables that disclose the activity of certain exemplary compounds of the invention in the above-described RXR receptor transactivation and binding assays are found in the corresponding sections. […] The transactivation data pertaining to the activation of RXR receptors were obtained in the holoreceptor assay.
as §2

[4] = biological target: T4, RARα (Homo sapiens, UniProt P10276); assay: ligand binding assay, RARα; conditions: for Ki: read-out: RAR Bind. Ki α; for Kd: Table 9 (Formula F), read-out: RAR α Kd
T4 sequence (P10276 1-462): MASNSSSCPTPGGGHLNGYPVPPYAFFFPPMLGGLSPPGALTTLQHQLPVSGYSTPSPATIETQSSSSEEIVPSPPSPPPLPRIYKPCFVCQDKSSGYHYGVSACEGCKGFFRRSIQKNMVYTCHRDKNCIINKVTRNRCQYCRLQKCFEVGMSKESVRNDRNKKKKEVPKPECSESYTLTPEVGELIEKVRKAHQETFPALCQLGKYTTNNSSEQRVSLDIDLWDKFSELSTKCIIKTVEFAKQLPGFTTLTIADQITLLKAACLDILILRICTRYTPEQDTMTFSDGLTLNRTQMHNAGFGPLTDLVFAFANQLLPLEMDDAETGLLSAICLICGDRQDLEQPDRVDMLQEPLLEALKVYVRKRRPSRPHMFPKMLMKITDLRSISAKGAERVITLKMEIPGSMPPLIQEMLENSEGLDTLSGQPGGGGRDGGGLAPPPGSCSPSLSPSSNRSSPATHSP
Excerpt: as §1, §2

[5] = biological target: T3, RXRβ; assay: ligand binding assay, RXRβ; conditions: for Ki: read-out: RXR Bind Ki β; for Kd: Table 9 (Formula F), read-out: RXR β Kd
Excerpt: as §1, §2

[6] = biological target: T5, RARγ (Homo sapiens, UniProt P13631); assay: ligand binding assay, RARγ; conditions: for Ki: read-out: RAR Bind. Ki γ; for Kd: Table 9 (Formula F), read-out: RAR γ Kd
T5 sequence (P13631 1-454): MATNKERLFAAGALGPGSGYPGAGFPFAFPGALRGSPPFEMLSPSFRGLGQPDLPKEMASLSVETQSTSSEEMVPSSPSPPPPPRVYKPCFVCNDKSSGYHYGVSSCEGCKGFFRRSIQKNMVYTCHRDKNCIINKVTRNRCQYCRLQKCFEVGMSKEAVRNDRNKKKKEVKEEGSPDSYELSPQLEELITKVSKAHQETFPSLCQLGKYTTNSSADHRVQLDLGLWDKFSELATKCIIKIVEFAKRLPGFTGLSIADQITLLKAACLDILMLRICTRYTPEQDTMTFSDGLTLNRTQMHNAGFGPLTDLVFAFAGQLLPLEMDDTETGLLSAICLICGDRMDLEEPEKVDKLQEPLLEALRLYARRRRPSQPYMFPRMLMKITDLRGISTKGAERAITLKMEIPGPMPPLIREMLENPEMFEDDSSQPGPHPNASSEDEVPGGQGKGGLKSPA
Excerpt: as §1, §2

[7] = biological target: T2, RXRα; assay: holoreceptor transactivation assay, RXRα; format: cell-based
Excerpt: as §1, §3, §4, §2

[8] = system: ob/ob mice; assay: serum glucose, triglycerides and T4 in diabetic mice, oral gavage in corn oil daily for seven days; format: in vivo; conditions: for Glucose Day 0 / Triglycerides Day 0: day 0 (pre-treatment)
[9] = system: ob/ob mice; assay: serum glucose, triglycerides and T4 in ob/ob mice, drug mixed in control diet over 7 days; format: in vivo; conditions: 2.5 mg/kg per day in diet
[10] = 4 mg/kg, corn oil vehicle (second Table 9)
[11] = 5 mg/kg, corn oil vehicle (Table 7)

Structure (SMILES): CCOc1cc2c(cc1\C(C)=C/C=C/C(C)=C/C(=O)O)C(C(C)C)=CC(C)(C)O2 [Compound 47, 7-(7-Ethoxy-4-isopropyl-2,2-dimethyl-2H-chromen-6-yl)-3-methyl-octa-2E,4E,6Z-trienoic acid]
Ki [1]: 3900 nM
Ki [2]: 15 nM
EC50 ([3]; holoreceptor transactivation, read-out: RXR Trans. EC50 β): 288 nM
RXR Trans. efficacy (number in parentheses) β ([3]; percentage compared to the standard compound): 6%
Ki [4]: > 10000 nM
Ki [5]: 150 nM

Structure (SMILES): CCOc1cc2c(cc1\C(C)=C(F)/C=C/C(C)=C/C(=O)O)C(C(C)C)=CC(C)(C)O2 [Compound 124, (2E,4E,6E)-7-(7-Ethoxy-4-isopropyl-2,2-dimethyl-2H-Chromen-6-yl)-6-fluoro-3-methyl-octa-2.46-trienoic acid]
Ki [1]: 1000 nM
Ki [2]: 6 nM
Ki [6]: 3.3 µM
Ki [4]: 523 nM
Ki [5]: 42 nM

Structure (SMILES): CCCOc1cc2c(cc1\C(C)=C(F)/C=C/C(C)=C/C(=O)O)C(C(C)C)=CC(C)(C)O2 [Compound 125, (2E,4E,6E) 6-Fluoro-7-(4-isopropyl-2,2-dimethyl-7-propoxy-2H-chromen-6-yl)-3-methyl-octa-2,4,6-trienoic acid]
Ki [1]: 3 nM
Ki [2]: 8 nM
Ki [6]: 0.043 µM
Ki [4]: 12 nM
Ki [5]: 73 nM

Structure (SMILES): CCCCOc1cc2c(cc1\C(C)=C(F)/C=C/C(C)=C/C(=O)O)C(C(C)C)=CC(C)(C)O2 [Compound 126, (2E,4E,6E)-7-(7-Butoxy-4-isopropyl-2,2-dimethyl-2H-chromen-6-yl)-6-fluoro-3-methyl-octa-2,4,6-trienoic acid]
Ki [1]: 522 nM
Ki [2]: 8 nM
Ki [6]: 3 µM
Ki [4]: 860 nM
Ki [5]: 59 nM

Structure (SMILES): CC(/C=C/[C@@H]1C[C@]1(C)c1ccc2c(c1)C(C)(C)CCC2(C)C)=C\C(=O)O [Standard compound, (2E,4E,1′S,2′S)-3-methyl-5-[2′-methyl-2′-(5,5,8,8-tetramethyl-5,6,7,8-tetrahydro-naphthalen-2-yl)-cyclopropyl]-penta-2,4-dienoic acid]
Glucose Day 3, 3 h [8, 10]: 312 mg/dL
Glucose Day 6, 3 h [8, 10]: 291 mg/dL
T4 Day 7 [8, 10]: 0.5 µg/dL
Triglycerides Day 3, 3 h [8, 10]: 309 mg/dL
Glucose Day 0 [8, 10]: 544 mg/dL
Triglycerides Day 0 [8, 10]: 261 mg/dL
Glucose Day 3, 3 h [8, 11]: 301 mg/dL
Glucose Day 6, 3 h [8, 11]: 218 mg/dL
T4 Day 7 [8, 11]: 2.7 µg/dL
Triglycerides Day 3, 3 h [8, 11]: 147 mg/dL
Glucose Day 0 [8, 11]: 389 mg/dL
Triglycerides Day 0 [8, 11]: 149 mg/dL
serum thyroxine levels (in words) ([8]; diabetic mammals): undesirable side effect of reducing serum thyroxine levels
Glucose Day 3, 3 h [9]: 107 mg/dL
Glucose Day 6, 3 h [9]: 136 mg/dL
T4 Day 7 [9]: 0.8 µg/dL
Triglycerides Day 3, 3 h [9]: 55 ± 23 mg/dL
Glucose Day 0 ([9]; day 0 (pre-treatment)): 246 mg/dL
Triglycerides Day 0 ([9]; day 0 (pre-treatment)): 92 ± 41 mg/dL

The next lines start with the values.

Kd [1]: 192 nM
Kd [2]: 2 nM
Kd [6]: 810 nM
Kd [4]: 91 nM
Kd [5]: 11 nM
EC50 ([7]; holoreceptor transactivation, read-out: RXR Trans. EC50 α): 1 nM
Emax ([7]; percentage compared to the standard compound, read-out: RXR Trans. efficacy (number in parentheses) α): 5%
Structure (SMILES): CCCOc1c(\C(C)=C(F)/C=C/C(C)=C/C(=O)O)cc2c(c1Br)C(C)(C)CC=C2C(C)C [Compound A-173, (2E,4E,6E)-7-(4-Bromo-8-isopropyl-5,5-dimethyl-3-propoxy-5,6-dihydro-nahthalen-2-yl)-6-fluoro-3-methyl-octa-2,4,6-trienoic acid]

Kd [1]: 280 nM
Kd [2]: 9 nM
Kd [6]: 866 nM
Kd [4]: 458 nM
Kd [5]: 31 nM
Structure (SMILES): CC(/C=C/C(F)=C(/C)c1cc2c(c(Br)c1OC(C)C)C(C)(C)CC=C2C(C)(C)C)=C\C(=O)O [Compound A-175, (2E,4E,6E)-7-(4 Bromo-8-tert-butyl-3-isopropoxy-5,5-dimethyl-5,6 dihydro-naphthalen-2-yl)-6-fluoro-3-methyl-octa-2,4,6-trienoic acid]
